Source: the supplement of paper PMC10307832

Columns and labels:
Test in all cases: relative viability (nuclei count vs DMSO), 5 days (fraction); higher = more cells survive
[1] = test system: LC-2-ad
Method in brief: (§1)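 Lung cancer cell lines in 1536-well plates were dosed by pin tool the day after seeding, either with one drug alone or with a fixed anchor-drug dose plus five library-drug doses (not always all listed) in √10 steps. After 5 days, cells were fixed and their nuclei stained in one step (final 0.05% Triton X-100, 1% formaldehyde, 1 ug/ml Hoechst), then counted on 4× images. Relative viability is the nuclei count in treated wells divided by that in vehicle wells. Values are medians of duplicate plates.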

[2] = test system: COR-L23
Method in brief: as §1

[3] = test system: LU99A
Method in brief: as §1

[4] = test system: NCI-H2347
Method in brief: as §1

[5] = test system: NCI-H1651
Method in brief: as §1

[6] = test system: NCI-H1355
Method in brief: as §1

[7] = test system: EPLC-272H
Method in brief: as §1

[8] = test system: UMC-11
Method in brief: as §1

[9] = test system: HARA
Method in brief: as §1

[10] = test system: NCI-H2126
Method in brief: as §1

[11] = test system: NCI-H1993
Method in brief: as §1

[12] = test system: NCI-H650
Method in brief: as §1

[13] = test system: HOP-62
Method in brief: as §1

[14] = test system: NCI-H1915
Method in brief: as §1

[15] = test system: PC-14
Method in brief: as §1

[16] = test system: NCI-H838
Method in brief: as §1

[17] = test system: ABC-1
Method in brief: as §1

[18] = test system: NCI-H2023
Method in brief: as §1

[19] = test system: HCC-15
Method in brief: as §1

[20] = test system: NCI-H2085
Method in brief: as §1

[21] = test system: SW 1573
Method in brief: as §1

With CC(=O)O[C@@]12CO[C@@H]1C[C@H](O)[C@@]1(C)C(=O)[C@H](O)C3=C(C)[C@@H](OC(=O)[C@H](O)[C@@H](NC(=O)OC(C)(C)C)c4ccccc4)C[C@@](O)([C@@H](OC(=O)c4ccccc4)[C@H]21)C3(C)C [Docetaxel] + Cc1nc(Nc2ncc(C(=O)Nc3c(C)cccc3Cl)s2)cc(N2CCN(CCO)CC2)n1 [Dasatinib] (partner 0.075 µM) the relative viability ([1]; first compound 0.0002 µM) was 0.362, the relative viability ([1]; first compound 0.000632 µM) was 0.38 and the relative viability ([1]; first compound 0.002 µM) was 0.28. For the same molecule, the relative viability ([1]; first compound 0.006325 µM) was 0.207, the relative viability ([2]; first compound 0.0002 µM) was 0.458 and the relative viability ([2]; first compound 0.000632 µM) was 0.406. The relative viability ([2]; first compound 0.002 µM) was 0.226, the relative viability ([2]; first compound 0.006325 µM) was 0.112 and the relative viability ([2]; first compound 0.02 µM) was 0.0725. For the same molecule, the relative viability ([3]; first compound 0.0002 µM) was 0.588, the relative viability ([3]; first compound 0.000632 µM) was 0.372 and the relative viability ([3]; first compound 0.002 µM) was 0.285. The relative viability ([3]; first compound 0.006325 µM) was 0.277, the relative viability ([4]; first compound 0.0002 µM) was 0.336 and the relative viability ([4]; first compound 0.000632 µM) was 0.326. For the same molecule, the relative viability ([4]; first compound 0.002 µM) was 0.242, the relative viability ([4]; first compound 0.006325 µM) was 0.23 and the relative viability ([4]; first compound 0.02 µM) was 0.241. For the same molecule, the relative viability ([5]; first compound 0.0002 µM) was 0.338, the relative viability ([5]; first compound 0.000632 µM) was 0.236 and the relative viability ([5]; first compound 0.002 µM) was 0.119. For the same molecule, the relative viability ([5]; first compound 0.006325 µM) was 0.0789, the relative viability ([5]; first compound 0.02 µM) was 0.0711 and the relative viability ([6]; first compound 0.0002 µM) was 0.726. It also gave a relative viability ([6]; first compound 0.000632 µM) of 0.665, a relative viability ([6]; first compound 0.002 µM) of 0.472 and a relative viability ([6]; first compound 0.006325 µM) of 0.314. It also gave a relative viability ([6]; first compound 0.02 µM) of 0.203, a relative viability ([7]; first compound 0.0002 µM) of 0.358 and a relative viability ([7]; first compound 0.000632 µM) of 0.235. It also gave a relative viability ([7]; first compound 0.002 µM) of 0.142, a relative viability ([7]; first compound 0.006325 µM) of 0.107 and a relative viability ([7]; first compound 0.02 µM) of 0.0615. For the same molecule, the relative viability ([8]; first compound 0.0002 µM) was 0.429, the relative viability ([8]; first compound 0.000632 µM) was 0.42 and the relative viability ([8]; first compound 0.002 µM) was 0.264. For the same molecule, the relative viability ([8]; first compound 0.006325 µM) was 0.21, the relative viability ([8]; first compound 0.02 µM) was 0.171 and the relative viability ([9]; first compound 0.0002 µM) was 0.261. The relative viability ([9]; first compound 0.000632 µM) was 0.173, the relative viability ([9]; first compound 0.002 µM) was 0.134 and the relative viability ([9]; first compound 0.006325 µM) was 0.0839. It also gave a relative viability ([9]; first compound 0.02 µM) of 0.0451, a relative viability ([10]; first compound 0.0002 µM) of 0.659 and a relative viability ([10]; first compound 0.000632 µM) of 0.573. The relative viability ([10]; first compound 0.002 µM) was 0.363, the relative viability ([10]; first compound 0.006325 µM) was 0.339 and the relative viability ([11]; first compound 0.0002 µM) was 0.569. The relative viability ([11]; first compound 0.000632 µM) was 0.612, the relative viability ([11]; first compound 0.002 µM) was 0.589 and the relative viability ([11]; first compound 0.006325 µM) was 0.638. It also gave a relative viability ([11]; first compound 0.02 µM) of 0.465, a relative viability ([12]; first compound 0.0002 µM) of 0.396 and a relative viability ([12]; first compound 0.000632 µM) of 0.361. The relative viability ([12]; first compound 0.002 µM) was 0.253, the relative viability ([12]; first compound 0.006325 µM) was 0.228 and the relative viability ([12]; first compound 0.02 µM) was 0.198. The relative viability ([13]; first compound 0.0002 µM) was 0.56, the relative viability ([13]; first compound 0.000632 µM) was 0.58 and the relative viability ([13]; first compound 0.002 µM) was 0.309. For the same molecule, the relative viability ([13]; first compound 0.02 µM) was 0.155, the relative viability ([14]; first compound 0.0002 µM) was 0.304 and the relative viability ([14]; first compound 0.000632 µM) was 0.331. It also gave a relative viability ([14]; first compound 0.002 µM) of 0.228, a relative viability ([14]; first compound 0.006325 µM) of 0.153 and a relative viability ([14]; first compound 0.02 µM) of 0.0717. For the same molecule, the relative viability ([15]; first compound 0.0002 µM) was 0.286, the relative viability ([15]; first compound 0.000632 µM) was 0.188 and the relative viability ([15]; first compound 0.002 µM) was 0.0514. For the same molecule, the relative viability ([15]; first compound 0.006325 µM) was 0.0304, the relative viability ([15]; first compound 0.02 µM) was 0.0231 and the relative viability ([16]; first compound 0.0002 µM) was 0.318. The relative viability ([16]; first compound 0.000632 µM) was 0.3, the relative viability ([16]; first compound 0.002 µM) was 0.265 and the relative viability ([16]; first compound 0.006325 µM) was 0.247. It also gave a relative viability ([16]; first compound 0.02 µM) of 0.175, a relative viability ([17]; first compound 0.0002 µM) of 0.533 and a relative viability ([17]; first compound 0.000632 µM) of 0.434. For the same molecule, the relative viability ([17]; first compound 0.002 µM) was 0.388, the relative viability ([17]; first compound 0.006325 µM) was 0.36 and the relative viability ([17]; first compound 0.02 µM) was 0.252. For the same molecule, the relative viability ([18]; first compound 0.0002 µM) was 0.467, the relative viability ([18]; first compound 0.000632 µM) was 0.339 and the relative viability ([18]; first compound 0.002 µM) was 0.134. For the same molecule, the relative viability ([18]; first compound 0.006325 µM) was 0.123, the relative viability ([18]; first compound 0.02 µM) was 0.0567 and the relative viability ([19]; first compound 0.0002 µM) was 0.456. It also gave a relative viability ([19]; first compound 0.000632 µM) of 0.221, a relative viability ([19]; first compound 0.002 µM) of 0.16 and a relative viability ([19]; first compound 0.006325 µM) of 0.21. It also gave a relative viability ([19]; first compound 0.02 µM) of 0.115, a relative viability ([20]; first compound 0.0002 µM) of 0.229 and a relative viability ([20]; first compound 0.000632 µM) of 0.268. It also gave a relative viability ([20]; first compound 0.002 µM) of 0.217, a relative viability ([20]; first compound 0.006325 µM) of 0.24 and a relative viability ([20]; first compound 0.02 µM) of 0.176. For the same molecule, the relative viability ([21]; first compound 0.0002 µM) was 0.307, the relative viability ([21]; first compound 0.000632 µM) was 0.19 and the relative viability ([21]; first compound 0.002 µM) was 0.122. It also gave a relative viability ([21]; first compound 0.02 µM) of 0.0658.
